According to patent US10160747B2, “Compounds and methods for kinase modulation, and indications therefor” (Plexxikon Inc., priority 2016, dated 2018):

Legend:
BA/F3-FLT3-ITD + D835Y = molecular target: T1, BA/F3-FLT3-ITD + D835Y (Homo sapiens, UniProt P36888, D835Y, cells depend on it, form not given); experiment: Engineered BA/F3 cell growth assay, FLT3 ITD/D835Y; type: cell-based, murine; conditions: 3 d growth
T1 sequence (P36888 with tags, fused parts or gaps INS600HVDFREYEYD/D835Y): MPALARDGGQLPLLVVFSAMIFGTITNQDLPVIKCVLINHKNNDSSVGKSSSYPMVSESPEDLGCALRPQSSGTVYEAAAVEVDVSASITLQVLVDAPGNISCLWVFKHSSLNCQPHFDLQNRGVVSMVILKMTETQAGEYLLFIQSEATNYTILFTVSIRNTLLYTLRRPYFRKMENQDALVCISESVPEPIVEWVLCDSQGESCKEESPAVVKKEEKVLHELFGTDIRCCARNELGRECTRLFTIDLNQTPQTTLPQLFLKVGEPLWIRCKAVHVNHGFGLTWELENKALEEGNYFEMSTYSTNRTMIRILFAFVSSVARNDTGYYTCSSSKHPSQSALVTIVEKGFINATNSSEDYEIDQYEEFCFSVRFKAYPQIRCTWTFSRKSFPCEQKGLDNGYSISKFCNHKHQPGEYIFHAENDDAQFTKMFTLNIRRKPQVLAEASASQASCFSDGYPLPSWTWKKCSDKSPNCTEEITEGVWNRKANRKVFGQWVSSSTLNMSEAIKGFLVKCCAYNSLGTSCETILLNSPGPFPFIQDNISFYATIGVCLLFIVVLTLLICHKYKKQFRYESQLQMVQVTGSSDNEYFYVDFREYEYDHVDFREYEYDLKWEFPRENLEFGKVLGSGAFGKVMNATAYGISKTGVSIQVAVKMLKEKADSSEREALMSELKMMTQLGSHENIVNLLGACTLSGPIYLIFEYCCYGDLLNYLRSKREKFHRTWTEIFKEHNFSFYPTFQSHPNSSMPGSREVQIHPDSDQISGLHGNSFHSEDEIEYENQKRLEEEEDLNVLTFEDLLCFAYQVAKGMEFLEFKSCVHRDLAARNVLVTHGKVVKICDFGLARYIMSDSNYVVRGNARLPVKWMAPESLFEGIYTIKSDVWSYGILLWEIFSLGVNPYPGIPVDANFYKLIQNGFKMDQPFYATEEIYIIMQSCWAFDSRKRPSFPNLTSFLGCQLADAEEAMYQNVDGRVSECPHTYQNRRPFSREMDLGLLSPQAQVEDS
Source text: (§1) The FLT3 inhibitors may be assessed using the MOLM-14, Acute Myeloid Leukemia cell line that endogenously expresses FLT3 ITD or derivatives of the human FLT3 AML cell line which acquired the D835Y (activation loop) of F691L (gatekeeper) mutation after selection in escalating doses of the FLT3 Inhibitor AC220. FLT3 inhibitors may also be assessed using cells that are engineered to express mutant FLT3. For engineered cells, murine Ba/F3 cells were transfected with full-length FLT3 ITD/D835Y mutations. The parental BA/F3 cells are dependent upon Interleukin-3 (IL-3) for survival, and introduction of the FLT3 constructs rendered these cells dependent upon FLT3 kinase activity when cultured in the absences of IL-3. Engineered BA/F3 cell growth assays can be performed in either the […] of IL-3, to assess the compound inhibition of FLT3 or to detect the presence of off-target activity, respectively. Inhibitors of FLT3 kinase activity reduce or eliminate the FLT3 oncogenic signaling, resulting in reduced cell proliferation. This inhibition is measured as a function of compound concentration to assess IC50 values.
(§2) Cell lines used in proliferation assays are as follows in Table 2:
(§3) Cells were seeded at 1×10^4 cells per well of a 96 well cell culture plate in 50 μl of cell culture medium. Compounds were dissolved in DMSO, typically at a concentration of 0.5 mM and were serially diluted 1:3 for a total of eight points and added to the cells to final concentrations of […], 0.0041, 0.0014 and 0.00046 μM in 100 μl cell culture medium (final concentration 0.2% DMSO). […] The cells were incubated at 37° C., 5% CO2 for three days. CellTiter-Glo Buffer (Promega Cell Viability Assay catalog #G7573) and substrate were equilibrated to room temperature, and enzyme/substrate Recombinant Firefly Luciferase/Beetle Luciferin was reconstituted. The cell plates were equilibrated to room temperature for 30 minutes, then lysed by addition of an equivalent volume of the Celltiter-Glo Reagent. The plate was mixed for 10 minutes on a plate shaker to lyse the cells. The plates were read on a Tecan M1000 using Luminescence protocol modified to read 0.1 s per well. The luminescence reading assesses the ATP content, which correlates directly with cell number such that the reading as a function of compound concentration was used to determine the IC50 value.
The BaF3 assays as developed used to generate the data in Tables 7 and 8 are identical and differ only in minor details in regards to vector design, not biological function. Both introduce the FLT3 gene with MV4-11 based ITD duplications and resistance mutations from an exogenous promoter (MSCV and CMV respectively) in the exact same cell line.
As a result of the expressed FLT3 protein, the IL3 factor dependent BaF3 cell clones become IL3-factor independent.
The compounds in Tables 7 and 8 were tested in an identical fashion by incubating such clones in with increasing concentrations. Inhibition of the FLT3 activity by an inhibitor results in factor dependency, which in the absence of IL3 results in cell death in the three day growth assays.

[1] = test system: MOLM-14 F691L (endogenous FLT3 ITD and transfected FLT3 F691L); experiment: MOLM-14 F691L cell proliferation assay (CellTiter-Glo); type: cell-based; conditions: Homo sapiens, MOLM-14, 72 h; 3 d growth, GMean
Source text: as §1, §2, §3

[2] = test system: MOLM-14 D835Y (endogenous FLT3 ITD and transfected FLT3 D835Y); experiment: MOLM-14 D835Y cell proliferation assay (CellTiter-Glo); type: cell-based; conditions: Homo sapiens, MOLM-14, 72 h; 3 d growth, GMean
Source text: as §1, §2, §3

| SMILES | GI50 (BA/F3-FLT3-ITD + D835Y) [µM] | IC50 [1] [µM] | IC50 [2] [µM] |
| --- | --- | --- | --- |
| O=C(Cc1ccc(-c2cnc3[nH]c(Cl)cc3c2)cc1F)Nc1cc(C(F)(F)F)ccn1 [Compound P-0040, 2-(4-(2-chloro-1H-pyrrolo[2,3-b]pyridin-5-yl)-2-fluorophenyl)-N-(4-(trifluoromethyl)pyridin-2-yl)acetamide] | 0.0001 to 10 | 0.0001 to 10 | 0.0001 to 10 |
| COc1ncc(NC(=O)Cc2ccc(-c3cnc4[nH]c(-c5ccc(N6CCOCC6)nc5)cc4c3)c(F)c2)cc1C(F)(F)F [Compound P-0193, 2-[3-fluoro-4-[2-(6-morpholino-3-pyridyl)-1H-pyrrolo[2,3-b]pyridin-5-yl]phenyl]-N-[6-methoxy-5-(trifluoromethyl)-3-pyridyl]acetamide] | 0.0001 to 10 | 0.0001 to 10 | 0.0001 to 10 |
| COc1ccc(-c2cc3cc(-c4ccc(CC(=O)Nc5cnc(OC)c(C(F)(F)F)c5)cc4F)cnc3[nH]2)cn1 [Compound P-0012, 2-[3-fluoro-4-[2-(6-methoxy-3-pyridyl)-1H-pyrrolo[2,3-b]pyridin-5-yl]phenyl]-N-[6-methoxy-5-(trifluoromethyl)-3-pyridyl]acetamide] | 0.0001 to 10 | 0.0001 to 10 | 0.0001 to 10 |
| O=C(Cc1cc(F)c(-c2cnc3[nH]c(-c4ccnc(N5CCOCC5)c4)cc3c2)cc1F)Nc1cc(C(F)(F)F)ccn1 [Compound P-0190, 2-[2,5-difluoro-4-[2-(2-morpholino-4-pyridyl)-1H-pyrrolo[2,3-b]pyridin-5-yl]phenyl]-N-[4-(trifluoromethyl)-2-pyridyl]acetamide] | 0.0001 to 10 | 0.0001 to 10 | 0.0001 to 10 |
| Cn1cc(Nc2ncc(-c3ccc(CC(=O)NCc4cccc(C(F)(F)F)c4)cc3)cn2)cn1 [Compound P-0128, 2-[4-[2-[(1-methylpyrazol-4-yl)amino]pyrimidin-5-yl]phenyl]-N-[[3-(trifluoromethyl)phenyl]methyl]acetamide] | 0.0001 to 10 | 0.0001 to 10 | 0.0001 to 10 |
| Cn1cc(Nc2ncc(-c3ccc(CC(=O)Nc4cc(C(C)(F)F)ccn4)cc3)cn2)cn1 [Compound P-0147, N-[4-(1,1-difluoroethyl)-2-pyridyl]-2-[4-[2-[(1-methylpyrazol-4-yl)amino]pyrimidin-5-yl]phenyl]acetamide] | 0.0001 to 10 | 0.0001 to 10 | 0.0001 to 10 |
| COc1ccc(-c2cc3cc(-c4ccc(CC(=O)Nc5cnc(OC)c(C(F)(F)F)c5)c(F)c4)cnc3[nH]2)cn1 [Compound P-0007, 2-[2-fluoro-4-[2-(6-methoxy-3-pyridyl)-1H-pyrrolo[2,3-b]pyridin-5-yl]phenyl]-N-[6-methoxy-5-(trifluoromethyl)-3-pyridyl]acetamide] | 0.0001 to 10 | 0.0001 to 10 | 0.0001 to 10 |
| Cn1cc(Nc2ncc(-c3ccc(CC(=O)NCc4cc(F)ccc4Cl)cc3)cn2)cn1 [Compound P-0124, N-[(2-chloro-5-fluoro-phenyl)methyl]-2-[4-[2-[(1-methylpyrazol-4-yl)amino]pyrimidin-5-yl]phenyl]acetamide] | 0.0001 to 10 | 0.0001 to 10 | 0.0001 to 10 |
| Cn1cc(Nc2ncc(-c3ccc(CC(=O)NCc4c(F)cccc4Cl)cc3)cn2)cn1 [Compound P-0127, N-[(2-chloro-6-fluoro-phenyl)methyl]-2-[4-[2-[(1-methylpyrazol-4-yl)amino]pyrimidin-5-yl]phenyl]acetamide] | 0.0001 to 10 | 0.0001 to 10 | 0.0001 to 10 |
| Cn1cc(Nc2ncc(-c3ccc(CC(=O)Nc4ccc(C#N)c(C(F)(F)F)c4)cc3)cn2)cn1 [Compound P-0113, N-[4-cyano-3-(trifluoromethyl)phenyl]-2-[4-[2-[(1-methylpyrazol-4-yl)amino]pyrimidin-5-yl]phenyl]acetamide] | 0.0001 to 10 | 0.0001 to 10 | 0.0001 to 10 |
| Cn1cc(Nc2ncc(-c3ccc(CC(=O)Nc4cnc5[nH]ccc5c4)cc3)cn2)cn1 [Compound P-0119, 2-[4-[2-[(1-methylpyrazol-4-yl)amino]pyrimidin-5-yl]phenyl]-N-(1H-pyrrolo[2,3-b]pyridin-5-yl)acetamide] | 0.0001 to 10 | 0.0001 to 10 | 0.0001 to 10 |
| COc1ncc(NC(=O)Cc2ccc(-c3cnc4[nH]c(-c5ccc(N6CCOCC6)nc5)cc4c3)cc2F)cc1C(F)(F)F [Compound P-0010, 2-[2-fluoro-4-[2-(6-morpholino-3-pyridyl)-1H-pyrrolo[2,3-b]pyridin-5-yl]phenyl]-N-[6-methoxy-5-(trifluoromethyl)-3-pyridyl]acetamide] | 0.0001 to 10 | 0.0001 to 10 | 0.0001 to 10 |

Next, values leading:

| GI50 (BA/F3-FLT3-ITD + D835Y) [µM] | IC50 [1] [µM] | IC50 [2] [µM] | SMILES |
| --- | --- | --- | --- |
| 0.0001 to 10 | 0.0001 to 10 | 0.0001 to 10 | Cn1cc(Nc2ncc(-c3ccc(CC(=O)Nc4cnc(Cl)c(Cl)c4)cc3)cn2)cn1 [Compound P-0116, N-(5,6-dichloro-3-pyridyl)-2-[4-[2-[(1-methylpyrazol-4-yl)amino]pyrimidin-5-yl]phenyl]acetamide] |
| 0.0001 to 10 | 0.0001 to 10 | 0.0001 to 10 | COCCn1cc(Nc2ncc(-c3ccc(CC(=O)Nc4cnc(C)c(C(F)(F)F)c4)c(F)c3)cn2)cn1 [Compound P-0264, 2-[2-fluoro-4-[2-[[1-(2-methoxyethyl)pyrazol-4-yl]amino]pyrimidin-5-yl]phenyl]-N-[6-methyl-5-(trifluoromethyl)-3-pyridyl]acetamide] |
| 0.0001 to 10 | 0.0001 to 10 | 0.0001 to 10 | CCc1cncc(NC(=O)Cc2ccc(-c3cnc(Nc4cnn(C(F)F)c4)nc3)cc2)c1 [Compound P-0223, 2-[4-[2-[[1-(difluoromethyl)pyrazol-4-yl]amino]pyrimidin-5-yl]phenyl]-N-(5-ethyl-3-pyridyl)acetamide] |
| 0.0001 to 10 | 0.0001 to 10 | 0.0001 to 10 | Cc1n[nH]c2ncc(NC(=O)Cc3ccc(-c4cnc(Nc5cnn(C)c5)nc4)cc3)cc12 [Compound P-0120, N-(3-methyl-1H-pyrazolo[3,4-b]pyridin-5-yl)-2-[4-[2-[(1-methylpyrazol-4-yl)amino]pyrimidin-5-yl]phenyl]acetamide] |
| 0.0001 to 10 | 0.0001 to 10 | 0.0001 to 10 | COc1ncc(NC(=O)Cc2ccc(-c3cnc(Nc4cnn(C(F)F)c4C)nc3)cc2)cc1C(F)(F)F [Compound P-0039, 2-[4-[2-[[1-(difluoromethyl)-5-methyl-pyrazol-4-yl]amino]pyrimidin-5-yl]phenyl]-N-[6-methoxy-5-(trifluoromethyl)-3-pyridyl]acetamide] |
